Reference: PubChem BioAssay (NCI)
Several values for one entry are separate records, joined by “and”; a condition that tells them apart may be missing. Identical values can stand only once.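 Exposure lasted 48 hours, with cells grown in 96-well plates and compounds tested at five concentrations. The concentration for 50% growth inhibition is given as GI50. Definition used: TGI = concentration required for complete inhibition of growth.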

Key:
Assay in all cases: NCI tumour cell line growth inhibition, 48 h
MDA-N = tested on: MDA-N
M19-MEL melanoma = tested on: M19-MEL melanoma
DMS 114 small cell lung = tested on: DMS 114 small cell lung
LXFL 529 NSCLC = tested on: LXFL 529 NSCLC
KM20L2 colon = tested on: KM20L2 colon
DMS 273 small cell lung = tested on: DMS 273 small cell lung
DLD-1 colon = tested on: DLD-1 colon
XF 498 CNS = tested on: XF 498 CNS
RXF-631 renal = tested on: RXF-631 renal
P388/ADR leukemia = tested on: P388/ADR leukemia
SN12K1 renal = tested on: SN12K1 renal

SMILES	TGI (MDA-N) [µM]	TGI (M19-MEL melanoma)	TGI (DMS 114 small cell lung) [µM]	TGI (LXFL 529 NSCLC) [µM]	TGI (KM20L2 colon)	TGI (DMS 273 small cell lung)	TGI (DLD-1 colon)	TGI (XF 498 CNS)	TGI (RXF-631 renal) [µM]	other results
O=C(CCl)N1CCN(c2ccccn2)CC1	42.4									
O=C1CC[C@@H](S(=O)(=O)c2ccccc2)[C@H](/C=C/c2ccccc2)O1		> 100 µM	> 100	> 100						
C=C1C2CCCC1C1(S(C)(=O)=O)CCCCC21O (stereo not drawn)		> 100 µM	> 100	> 100	> 100 µM	> 100 µM	> 100 µM			
CN(C)CC1CCCC/C1=N\OC(=O)c1ccccc1 (stereo not drawn)		> 100 µM	> 100	> 100	> 100 µM	> 100 µM	> 100 µM	> 100 µM	> 100	
CC[C@@]1(O)C(=O)OCc2c1cc1n(c2=O)Cc2cc3cc(O)ccc3nc2-1		0.589 µM and 1.01 µM		1.91	8.14 µM and 4.97 µM	0.47 µM and 1.74 µM	75 µM and > 87.2 µM	0.183 µM and 0.472 µM		GI50 (KM20L2 colon): 0.186 µM; GI50 (DMS 273 small cell lung): 0.0272 µM and 0.0217 µM; GI50 (DLD-1 colon): 0.514 µM; TGI (P388/ADR leukemia): 1.03 µM; GI50 (XF 498 CNS): 0.0518 µM; GI50 (M19-MEL melanoma): 0.0634 µM; TGI (SN12K1 renal): 0.937 µM
C=CCc1cc(OC)c(O)c(C(=O)/C=C/c2ccc(OC)c(OC)c2)c1			52.1	54.7		> 100 µM	37.2 µM	27 µM	83.9	
O=C(CC(O)(C(F)(F)F)C(F)(F)F)c1cccs1	> 10									
O=C1NC(c2cccc3ccccc23)Nc2ccc(Cl)cc21 (stereo not drawn)	0.000218									
C/C(=N\O)C1CC(CC(=O)O)C1(C)C (stereo not drawn)	> 100									
Nc1nc(N)c2c(Cl)c(CNc3ccc(Cl)c(Cl)c3)ccc2n1	17	12.5 µM	4.85	12.3	18.6 µM	3.87 µM	11.8 µM	7.71 µM		
CC1(C)CCC2(C(=O)O)C(O)CC3(C)C(=CCC4C5(C)CCC(OC6OCC(O)C(O)C6OC6OCC(O)C(O)C6OC6OCC(O)C(OC7OC(CO)C(O)C(O)C7O)C6O)C(C)(C)C5CCC43C)C2C1 (stereo not drawn)	57.8									
CC(=O)[CH-]C(=O)c1ccccc1.CC(=O)[CH-]C(=O)c1ccccc1.CC(=O)[CH-]C(=O)c1ccccc1.[Cl-].[Hf+4]		> 100 µM		> 100	> 100 µM		> 100 µM			GI50 (KM20L2 colon): 25.1 µM; GI50 (DLD-1 colon): 25.8 µM; GI50 (M19-MEL melanoma): 27.3 µM; GI50 (LXFL 529 NSCLC): 39.4 µM
NC(N)=NCCCC(Nc1c2ccccc2nc2ccccc12)C(=O)O (stereo not drawn)		> 100 µM		> 100	> 100 µM	> 100 µM	> 100 µM		> 100	
[pH]1p2[pH]p3p1p3[pH]2.c1cc[c]([Ge]([c]2ccccc2)[c]2ccccc2)cc1.c1cc[c]([Ge]([c]2ccccc2)[c]2ccccc2)cc1.c1cc[c]([Ge]([c]2ccccc2)[c]2ccccc2)cc1		28.6 µM	28.4	24.3	34 µM	32.5 µM	29.5 µM		27.5	GI50 (KM20L2 colon): 19.4 µM; GI50 (DMS 273 small cell lung): 15.3 µM; GI50 (DLD-1 colon): 14.8 µM; GI50 (M19-MEL melanoma): 14.4 µM; GI50 (DMS 114 small cell lung): 12.9 µM; GI50 (RXF-631 renal): 12.9 µM; GI50 (LXFL 529 NSCLC): 11.6 µM
O=C(Nc1ccc(Nc2ccc(NC(=O)c3ccccc3)c3c2C(=O)c2ccccc2C3=O)c2c1C(=O)c1ccccc1C2=O)c1ccccc1		> 100 µM	> 100	> 100	> 100 µM	> 100 µM	> 100 µM		> 100	
COc1ccc(C(=O)C(c2ccc(OC)cc2)C2(O)C(=O)Nc3c(Cl)cc(Cl)cc32)cc1 (stereo not drawn)			42	28.4	68 µM	46.8 µM	39.3 µM	47.2 µM		
COC(=O)C1C(=O)C(C(=O)OC)C2CCC1N2C (stereo not drawn)	73.8									
O=C(CCl)N1CCN(c2ccccc2)CC1	39.9									
CS(=O)(=O)ON1C(=O)c2ccc(N)cc2C1=O		> 100 µM	> 100	> 100	> 100 µM	> 100 µM	> 100 µM	> 100 µM	> 100	
Cc1[nH]c2ccccc2c1/C=C/c1c(C)[nH]c2ccccc12		> 100 µM	> 100	> 100	> 100 µM	> 100 µM	> 100 µM	> 100 µM		
O=C1C=C(Nc2cc(Cl)ccc2Cl)c2ccccc2C1=O		29.2 µM	76.2		> 100 µM	68.6 µM	> 100 µM		> 100	
COc1ccc(N=Nc2c(-c3ccccc3)nn(C(=O)CC(=O)Nc3ccc(OC)cc3)c2-c2ccccc2)cc1		> 100 µM	> 100	> 100		> 100 µM	> 100 µM	76.1 µM	> 100	

SMILES	TGI (MDA-N) [µM]	TGI (M19-MEL melanoma)	TGI (DMS 114 small cell lung) [µM]	TGI (LXFL 529 NSCLC) [µM]	TGI (KM20L2 colon)	TGI (DMS 273 small cell lung)	TGI (DLD-1 colon)	TGI (XF 498 CNS)	TGI (RXF-631 renal) [µM]	other results
Oc1ccc(I)c2cccnc12		76.8 µM		> 100	> 100 µM	14.1 µM	> 100 µM	> 100 µM		
NNC(=O)N/N=C(/CC1(O)C(=O)Nc2ccc(Br)cc21)c1ccccc1 (stereo not drawn)		> 100 µM		> 100	> 100 µM	> 100 µM	> 100 µM	38.5 µM	> 100	
CN(C)Cc1ccc(O)c(CN(C)C)n1	> 100									
COC12OCCN(C)C1=CC(=O)C1N=NCC12 (stereo not drawn)		> 100 µM	> 100	> 100		> 100 µM	> 100 µM		> 100	
Nc1nc2c(ncn2C2OC(CO)C(O)C2O)c(=O)o1 (stereo not drawn)		> 100 µM	> 100	> 100	> 100 µM	> 100 µM	> 100 µM	> 100 µM	> 100	
CCCCN(CCCC)CC(C(=O)Nc1ccc([N+](=O)[O-])cc1[N+](=O)[O-])/C(C)=N\NC(=O)c1ccncc1 (stereo not drawn)		> 100 µM	> 100	> 100	> 100 µM	> 100 µM	> 100 µM	> 100 µM	> 100	
NC(=S)N/N=C/C(O[C@@H](/C=N/NC(N)=S)CO)n1cnc2c(N)ncnc21 (stereo partly drawn)		> 100 µM	> 55.9	> 100	> 100 µM	97.7 µM		> 100 µM	> 100	
C/C(=C\CNc1ncnc2c1ncn2C1CCCCO1)COP(=O)(O)O (stereo not drawn)		> 100 µM	> 100	> 100	> 100 µM	> 100 µM	> 100 µM	> 100 µM	> 100	
O=C1CCC2(c3ccccc3)OCC([C@@H](O)c3ccccc3)N12 (stereo partly drawn)		> 100 µM	> 100		> 100 µM	> 100 µM	> 100 µM	> 100 µM		
C=C1CC[C@@](C)(c2cc(Br)c(C)cc2OC(C)=O)[C@H]1C	26.6									GI50 (MDA-N): 11.7 µM
O=C(CC(=O)N1N=C(n2ccc3ccccc32)CC1c1ccccc1)Nc1ccccc1Cl (stereo not drawn)		> 100 µM	> 100	> 100	> 100 µM	> 100 µM			> 100	
CC1CN1c1c(C(=O)/C=C/c2ccc(F)cc2)c(-c2ccccc2)nn(C)c1=O (stereo not drawn)		27.7 µM	31.1	31.7	31.6 µM		25.4 µM	28.8 µM		
N#CC(Cl)CS(=O)(=O)c1ccccc1 (stereo not drawn)	20.2	29.2 µM	9.34		39.4 µM		3.98 µM	9.64 µM		
CCP(C)(=O)CC		> 100 µM	> 100	> 100	> 100 µM	> 100 µM	> 100 µM	> 100 µM	> 100	
COC(=O)C1=C(C)N(NC(N)=O)C2(N)N(NC(N)=O)C(C)=C(C(=O)OC)C12C#N (stereo not drawn)		> 100 µM	> 100		> 100 µM	> 100 µM	> 100 µM	> 100 µM	> 100	
CC(C)(C)c1cc(Cc2ccc(S(C)(=O)=O)cc2)c(O)c(C(C)(C)C)c1		32.7 µM	26.3	29.2	29.1 µM	27.3 µM	33 µM	28.7 µM		
CC(=O)[CH-]C(=O)c1ccccc1.CC(=O)[CH-]C(=O)c1ccccc1.CC[C@H](CCC(C)[C@H]1CCC2[C@@H]3CC=C4C[C@@H]([O-])CC[C@]4(C)C3CC[C@@]21C)C(C)C.CC[C@H](CCC(C)[C@H]1CCC2[C@@H]3CC=C4C[C@@H]([O-])CC[C@]4(C)C3CC[C@@]21C)C(C)C.Cl.[Ti+4] (stereo partly drawn)				> 25	> 25 µM	> 25 µM	> 25 µM			GI50 (KM20L2 colon): > 25 µM; GI50 (DMS 273 small cell lung): > 25 µM; GI50 (DLD-1 colon): > 25 µM; GI50 (LXFL 529 NSCLC): > 25 µM
c1ccc(-c2sc(-c3ccccc3)c3c2C(c2ccccc2)c2c(-c4ccccc4)sc(-c4ccccc4)c2C3c2ccccc2)cc1 (stereo not drawn)		> 100 µM	> 100	> 100	> 100 µM	> 100 µM	> 100 µM			
CCc1nc(N)nc(N)c1-c1ccc(N2CCNCC2)c([N+](=O)[O-])c1	> 100									
Cc1cc(C)c([O-])c(-[n+]2c(-c3ccccc3)cc(-c3ccccc3)cc2-c2ccccc2)c1		13.2 µM	12.3	14.4	12.9 µM	12.1 µM	16.7 µM	6.21 µM	26.4	
C=C(CC)C(=O)c1ccc(OCC(=O)O)c(Cl)c1Cl	> 55.2									
COC(=O)NC1=Nc2ccccc2C(=O)NN1	> 100									
CCN1CCCCCCCCCC(=N/O)/C(=N\O)C1	> 100									
